# Test results from ChEMBL document CHEMBL5625277, “Systematical mutational analysis of teriparatide on anti-osteoporosis activity by alanine scanning” (Bioorg Med Chem Lett, 2024).
# Assay: Cytotoxicity in pre-osteoblasts (unknown origin) assessed as cell death upto 5 uM by CCK8 assay
# Type: toxicity, cell-based
# Details: pre-osteoblast
row,Compound,Activity
1,CC[C@H](C)[C@H](NC(=O)[C@H](CCC(=O)O)NC(=O)[C@H](CO)NC(=O)[C@@H](NC(=O)[C@H](CO)NC(C)=O)C(C)C)C(=O)N[C@@H](CCC(N)=O)C(=O)N[C@@H](CC(C)C)C(=O)N[C@@H](CCSC)C(=O)N[C@@H](Cc1cnc[nH]1)C(=O)N[C@@H](CC(N)=O)C(=O)N[C@@H](CC(C)C)C(=O)NCC(=O)N[C@@H](CCCCN)C(=O)N[C@@H](Cc1cnc[nH]1)C(=O)N[C@@H](CC(C)C)C(=O)N[C@@H](CC(N)=O)C(=O)N[C@@H](CO)C(=O)N[C@@H](CCSC)C(=O)N[C@@H](CCC(=O)O)C(=O)N[C@@H](CCCNC(=N)N)C(=O)N[C@H](C(=O)N[C@@H](C)C(=O)N[C@@H](Cc1c[nH]c2ccccc12)C(=O)N[C@@H](CC(C)C)C(=O)N[C@@H](CCCNC(=N)N)C(=O)N[C@@H](CCCCN)C(=O)N[C@@H](CCCCN)C(=O)N[C@@H](CC(C)C)C(=O)N[C@@H](CCC(N)=O)C(=O)N[C@@H](CC(=O)O)C(=O)N[C@H](C(=O)N[C@@H](Cc1cnc[nH]1)C(=O)N[C@@H](CC(N)=O)C(=O)N[C@@H](Cc1ccccc1)C(N)=O)C(C)C)C(C)C,Non-Toxic
2,CC[C@H](C)[C@H](NC(=O)[C@H](CCC(=O)O)NC(=O)[C@H](CO)NC(=O)[C@@H](NC(=O)[C@H](CO)NC(C)=O)C(C)C)C(=O)N[C@@H](CCC(N)=O)C(=O)N[C@@H](C)C(=O)N[C@@H](CCSC)C(=O)N[C@@H](Cc1cnc[nH]1)C(=O)N[C@@H](CC(N)=O)C(=O)N[C@@H](CC(C)C)C(=O)NCC(=O)N[C@@H](CCCCN)C(=O)N[C@@H](Cc1cnc[nH]1)C(=O)N[C@@H](CC(C)C)C(=O)N[C@@H](CC(N)=O)C(=O)N[C@@H](CO)C(=O)N[C@@H](CCSC)C(=O)N[C@@H](CCC(=O)O)C(=O)N[C@@H](CCCNC(=N)N)C(=O)N[C@H](C(=O)N[C@@H](CCC(=O)O)C(=O)N[C@@H](Cc1c[nH]c2ccccc12)C(=O)N[C@@H](CC(C)C)C(=O)N[C@@H](CCCNC(=N)N)C(=O)N[C@@H](CCCCN)C(=O)N[C@@H](CCCCN)C(=O)N[C@@H](CC(C)C)C(=O)N[C@@H](CCC(N)=O)C(=O)N[C@@H](CC(=O)O)C(=O)N[C@H](C(=O)N[C@@H](Cc1cnc[nH]1)C(=O)N[C@@H](CC(N)=O)C(=O)N[C@@H](Cc1ccccc1)C(N)=O)C(C)C)C(C)C,Non-Toxic
3,CC[C@H](C)[C@H](NC(=O)[C@H](CCC(=O)O)NC(=O)[C@H](CO)NC(=O)[C@@H](NC(=O)[C@H](C)NC(C)=O)C(C)C)C(=O)N[C@@H](CCC(N)=O)C(=O)N[C@@H](CC(C)C)C(=O)N[C@@H](CCSC)C(=O)N[C@@H](Cc1cnc[nH]1)C(=O)N[C@@H](CC(N)=O)C(=O)N[C@@H](CC(C)C)C(=O)NCC(=O)N[C@@H](CCCCN)C(=O)N[C@@H](Cc1cnc[nH]1)C(=O)N[C@@H](CC(C)C)C(=O)N[C@@H](CC(N)=O)C(=O)N[C@@H](CO)C(=O)N[C@@H](CCSC)C(=O)N[C@@H](CCC(=O)O)C(=O)N[C@@H](CCCNC(=N)N)C(=O)N[C@H](C(=O)N[C@@H](CCC(=O)O)C(=O)N[C@@H](Cc1c[nH]c2ccccc12)C(=O)N[C@@H](CC(C)C)C(=O)N[C@@H](CCCNC(=N)N)C(=O)N[C@@H](CCCCN)C(=O)N[C@@H](CCCCN)C(=O)N[C@@H](CC(C)C)C(=O)N[C@@H](CCC(N)=O)C(=O)N[C@@H](CC(=O)O)C(=O)N[C@H](C(=O)N[C@@H](Cc1cnc[nH]1)C(=O)N[C@@H](CC(N)=O)C(=O)N[C@@H](Cc1ccccc1)C(N)=O)C(C)C)C(C)C,Non-Toxic
4,CC[C@H](C)[C@H](NC(=O)[C@H](CCC(=O)O)NC(=O)[C@H](CO)NC(=O)[C@@H](NC(=O)[C@H](CO)NC(C)=O)C(C)C)C(=O)N[C@@H](CCC(N)=O)C(=O)N[C@@H](CC(C)C)C(=O)N[C@@H](CCSC)C(=O)N[C@@H](Cc1cnc[nH]1)C(=O)N[C@@H](CC(N)=O)C(=O)N[C@@H](CC(C)C)C(=O)NCC(=O)N[C@@H](CCCCN)C(=O)N[C@@H](Cc1cnc[nH]1)C(=O)N[C@@H](CC(C)C)C(=O)N[C@@H](CC(N)=O)C(=O)N[C@@H](CO)C(=O)N[C@@H](CCSC)C(=O)N[C@@H](CCC(=O)O)C(=O)N[C@@H](CCCNC(=N)N)C(=O)N[C@H](C(=O)N[C@@H](CCC(=O)O)C(=O)N[C@@H](Cc1c[nH]c2ccccc12)C(=O)N[C@@H](CC(C)C)C(=O)N[C@@H](CCCNC(=N)N)C(=O)N[C@@H](CCCCN)C(=O)N[C@@H](CCCCN)C(=O)N[C@@H](CC(C)C)C(=O)N[C@@H](CCC(N)=O)C(=O)N[C@@H](CC(=O)O)C(=O)N[C@H](C(=O)N[C@@H](Cc1cnc[nH]1)C(=O)N[C@@H](CC(N)=O)C(=O)N[C@@H](C)C(N)=O)C(C)C)C(C)C,Non-Toxic
5,CC[C@H](C)[C@H](NC(=O)[C@H](CCC(=O)O)NC(=O)[C@H](C)NC(=O)[C@@H](NC(=O)[C@H](CO)NC(C)=O)C(C)C)C(=O)N[C@@H](CCC(N)=O)C(=O)N[C@@H](CC(C)C)C(=O)N[C@@H](CCSC)C(=O)N[C@@H](Cc1cnc[nH]1)C(=O)N[C@@H](CC(N)=O)C(=O)N[C@@H](CC(C)C)C(=O)NCC(=O)N[C@@H](CCCCN)C(=O)N[C@@H](Cc1cnc[nH]1)C(=O)N[C@@H](CC(C)C)C(=O)N[C@@H](CC(N)=O)C(=O)N[C@@H](CO)C(=O)N[C@@H](CCSC)C(=O)N[C@@H](CCC(=O)O)C(=O)N[C@@H](CCCNC(=N)N)C(=O)N[C@H](C(=O)N[C@@H](CCC(=O)O)C(=O)N[C@@H](Cc1c[nH]c2ccccc12)C(=O)N[C@@H](CC(C)C)C(=O)N[C@@H](CCCNC(=N)N)C(=O)N[C@@H](CCCCN)C(=O)N[C@@H](CCCCN)C(=O)N[C@@H](CC(C)C)C(=O)N[C@@H](CCC(N)=O)C(=O)N[C@@H](CC(=O)O)C(=O)N[C@H](C(=O)N[C@@H](Cc1cnc[nH]1)C(=O)N[C@@H](CC(N)=O)C(=O)N[C@@H](Cc1ccccc1)C(N)=O)C(C)C)C(C)C,Non-Toxic
6,CC[C@H](C)[C@H](NC(=O)[C@H](CCC(=O)O)NC(=O)[C@H](CO)NC(=O)[C@H](C)NC(=O)[C@H](CO)NC(C)=O)C(=O)N[C@@H](CCC(N)=O)C(=O)N[C@@H](CC(C)C)C(=O)N[C@@H](CCSC)C(=O)N[C@@H](Cc1cnc[nH]1)C(=O)N[C@@H](CC(N)=O)C(=O)N[C@@H](CC(C)C)C(=O)NCC(=O)N[C@@H](CCCCN)C(=O)N[C@@H](Cc1cnc[nH]1)C(=O)N[C@@H](CC(C)C)C(=O)N[C@@H](CC(N)=O)C(=O)N[C@@H](CO)C(=O)N[C@@H](CCSC)C(=O)N[C@@H](CCC(=O)O)C(=O)N[C@@H](CCCNC(=N)N)C(=O)N[C@H](C(=O)N[C@@H](CCC(=O)O)C(=O)N[C@@H](Cc1c[nH]c2ccccc12)C(=O)N[C@@H](CC(C)C)C(=O)N[C@@H](CCCNC(=N)N)C(=O)N[C@@H](CCCCN)C(=O)N[C@@H](CCCCN)C(=O)N[C@@H](CC(C)C)C(=O)N[C@@H](CCC(N)=O)C(=O)N[C@@H](CC(=O)O)C(=O)N[C@H](C(=O)N[C@@H](Cc1cnc[nH]1)C(=O)N[C@@H](CC(N)=O)C(=O)N[C@@H](Cc1ccccc1)C(N)=O)C(C)C)C(C)C,Non-Toxic
